Assay results reported in US9193762B2, “Selective inhibitors of prolylcarboxypeptidase” (UNIVERSITY OF MISSISSIPPI, priority 2010, dated 2015).
“Also recorded” adds a separate entry of the source. Where a SMILES comes first, the peptide text is derived from it. The star is where a group is joined. Cbz = O=C(OCc1ccccc1)*

What was measured:
[1] = biological target: CPN (hCPN, partially purified from plasma) (Homo sapiens (Human), UniProt P15169); assay: carboxypeptidase CPN, metabolism of hippuryl-lysine; format: biochemical
Sequence of CPN (hCPN, partially purified from plasma) (P15169 21-458): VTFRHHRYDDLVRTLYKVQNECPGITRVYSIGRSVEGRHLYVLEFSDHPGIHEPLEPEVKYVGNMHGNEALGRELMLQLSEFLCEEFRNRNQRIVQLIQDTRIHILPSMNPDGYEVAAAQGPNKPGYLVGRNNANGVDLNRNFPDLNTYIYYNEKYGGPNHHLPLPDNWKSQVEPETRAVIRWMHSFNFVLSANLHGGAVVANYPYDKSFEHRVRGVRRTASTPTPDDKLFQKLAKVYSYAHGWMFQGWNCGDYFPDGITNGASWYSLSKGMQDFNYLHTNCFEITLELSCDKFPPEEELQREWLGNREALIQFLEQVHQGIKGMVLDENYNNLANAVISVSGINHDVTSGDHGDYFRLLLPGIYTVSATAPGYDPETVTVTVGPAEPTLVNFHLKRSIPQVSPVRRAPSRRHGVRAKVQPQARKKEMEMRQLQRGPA
Sequence of CPN (hCPN, partially purified from plasma) (P22792 22-545 partner): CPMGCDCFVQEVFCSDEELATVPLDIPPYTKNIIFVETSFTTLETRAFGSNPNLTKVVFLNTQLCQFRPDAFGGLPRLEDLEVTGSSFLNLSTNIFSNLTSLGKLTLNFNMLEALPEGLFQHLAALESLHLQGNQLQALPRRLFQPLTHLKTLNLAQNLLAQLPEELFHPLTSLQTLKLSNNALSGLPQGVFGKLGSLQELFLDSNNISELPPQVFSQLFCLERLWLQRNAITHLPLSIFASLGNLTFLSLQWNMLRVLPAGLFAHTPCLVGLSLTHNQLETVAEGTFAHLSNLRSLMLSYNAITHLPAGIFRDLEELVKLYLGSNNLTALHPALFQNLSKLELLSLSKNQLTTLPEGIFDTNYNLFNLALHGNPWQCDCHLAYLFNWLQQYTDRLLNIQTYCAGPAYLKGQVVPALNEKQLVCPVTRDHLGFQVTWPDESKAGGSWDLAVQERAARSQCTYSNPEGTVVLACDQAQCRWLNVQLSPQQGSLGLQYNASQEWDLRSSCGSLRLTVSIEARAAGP
Text: While BK exerts its vasodilatory effect through the bradykinin B2 receptors (BKB2R), des-Arg9-BK (a substrate of PRCP) mediates its effect via the selective bradykinin B1 receptors (BKB1R). […] Carboxypeptidase A (CPA) is a highly conserved protease, which is present in pancreas and the secretory granules of mast cells. Although its substrate selectivity is different than that of PRCP, both CPA and PRCP can cleave the C-terminal aromatic or aliphatic amino acids of proteins or peptides. […] All values were calculated as percentage of positive control after subtraction of background. […] Commercially available pooled normal human serum was used. The tubes were tightly covered, vortexed for 15 seconds and incubated for 60 min at 37° C. in a shaker water bath. The enzymatic reaction was stopped by addition of 250 μL of 1 M HCl solution and vortexed for 15 seconds. The blanks were stopped immediately after the addition of serum by 250 μL of 1M HCl before incubation. All samples were incubated on ice for 5 min. 1500 μL ethyl acetate was added, vortexed for 30 s and centrifuged for 10 min at 4000 g. 1 mL of the upper layer (ethyl acetate) was transferred into a 5 mL test tube and placed in a boiling water bath for 45-60 min to evaporate the ethyl acetate thoroughly, 3 mL of 1M NaCl solution was added to each tube and vortexed for 30 s. All samples were placed in water bath at 70° C. for 5 min to redissolve all the residual hippuric acid, then vortexed for 30 s. After 15 min of incubation at room temperature, the absorbance of hippuric acid was read at λ=228 nm.
The reaction mixture was incubated at 37° C. for 1 h. The reaction was stopped by the addition of 0.5 M HCl.

CPM = CPM (Homo sapiens (Human), UniProt P14384); assay: carboxypeptidase CPM, metabolism of hippuryl-lysine; format: biochemical
Sequence of CPM (P14384 18-443, species assumed): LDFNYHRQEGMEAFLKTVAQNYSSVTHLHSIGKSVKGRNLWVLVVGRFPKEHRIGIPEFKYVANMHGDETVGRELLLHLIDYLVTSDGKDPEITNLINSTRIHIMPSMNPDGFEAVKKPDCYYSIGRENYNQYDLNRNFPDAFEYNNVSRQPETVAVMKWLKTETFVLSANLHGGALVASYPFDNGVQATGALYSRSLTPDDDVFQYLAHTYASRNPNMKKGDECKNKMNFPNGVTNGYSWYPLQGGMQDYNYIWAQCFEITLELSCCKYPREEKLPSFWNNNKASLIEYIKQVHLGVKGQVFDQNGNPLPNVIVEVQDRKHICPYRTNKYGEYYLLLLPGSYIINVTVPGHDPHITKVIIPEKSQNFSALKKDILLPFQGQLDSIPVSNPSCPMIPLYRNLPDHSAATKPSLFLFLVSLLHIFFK

[2] = biological target: carboxypeptidase B [CPB, EC 3.4.17.2] (Sus scrofa, UniProt P09955); assay: carboxypeptidase B inhibition; format: biochemical
Sequence of carboxypeptidase B [CPB, EC 3.4.17.2] (P09955 111-416 limits assumed): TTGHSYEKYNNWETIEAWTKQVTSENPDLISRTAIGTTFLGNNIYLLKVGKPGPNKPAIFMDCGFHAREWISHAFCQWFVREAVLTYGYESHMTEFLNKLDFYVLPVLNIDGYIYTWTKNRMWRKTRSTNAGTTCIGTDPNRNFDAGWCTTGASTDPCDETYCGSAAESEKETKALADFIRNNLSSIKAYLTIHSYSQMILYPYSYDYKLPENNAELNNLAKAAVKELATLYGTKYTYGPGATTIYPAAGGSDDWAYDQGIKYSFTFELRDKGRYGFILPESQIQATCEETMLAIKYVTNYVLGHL

[3] = biological target: carboxypeptidase A [CPA, EC 3.4.17.1] (Bos taurus, UniProt P00730); assay: carboxypeptidase A inhibition; format: biochemical
Sequence of carboxypeptidase A [CPA, EC 3.4.17.1] (P00730 111-419 limits assumed): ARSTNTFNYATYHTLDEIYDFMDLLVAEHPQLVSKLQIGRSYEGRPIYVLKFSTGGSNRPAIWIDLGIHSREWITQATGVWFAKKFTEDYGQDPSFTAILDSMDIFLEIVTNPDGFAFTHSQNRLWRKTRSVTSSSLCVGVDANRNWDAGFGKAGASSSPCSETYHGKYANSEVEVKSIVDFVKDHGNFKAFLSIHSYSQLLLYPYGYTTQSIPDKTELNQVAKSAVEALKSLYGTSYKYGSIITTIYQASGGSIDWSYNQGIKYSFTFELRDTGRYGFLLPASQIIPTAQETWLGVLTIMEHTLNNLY
Text: While BK exerts its vasodilatory effect through the bradykinin B2 receptors (BKB2R), des-Arg9-BK (a substrate of PRCP) mediates its effect via the selective bradykinin B1 receptors (BKB1R). […] Carboxypeptidase A (CPA) is a highly conserved protease, which is present in pancreas and the secretory granules of mast cells. Although its substrate selectivity is different than that of PRCP, both CPA and PRCP can cleave the C-terminal aromatic or aliphatic amino acids of proteins or peptides. […] The reaction mixture was incubated at 37° C. for 1 h. The reaction was stopped by the addition of 0.5 M HCl.

factor XIa (FXIa) = factor XIa (FXIa) (Homo sapiens (Human), UniProt P03951); assay: specificity: serine protease FXIa; format: biochemical
Sequence of factor XIa (FXIa) (P03951 388-625): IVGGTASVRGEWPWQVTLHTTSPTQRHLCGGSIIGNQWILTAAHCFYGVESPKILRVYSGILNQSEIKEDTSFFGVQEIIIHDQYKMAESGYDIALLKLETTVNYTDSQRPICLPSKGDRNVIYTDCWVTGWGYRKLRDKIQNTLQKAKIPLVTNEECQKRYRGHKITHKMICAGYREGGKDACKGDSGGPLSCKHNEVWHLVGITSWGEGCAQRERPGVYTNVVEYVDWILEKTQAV
Sequence of factor XIa (FXIa) (P03951 19-387 partner): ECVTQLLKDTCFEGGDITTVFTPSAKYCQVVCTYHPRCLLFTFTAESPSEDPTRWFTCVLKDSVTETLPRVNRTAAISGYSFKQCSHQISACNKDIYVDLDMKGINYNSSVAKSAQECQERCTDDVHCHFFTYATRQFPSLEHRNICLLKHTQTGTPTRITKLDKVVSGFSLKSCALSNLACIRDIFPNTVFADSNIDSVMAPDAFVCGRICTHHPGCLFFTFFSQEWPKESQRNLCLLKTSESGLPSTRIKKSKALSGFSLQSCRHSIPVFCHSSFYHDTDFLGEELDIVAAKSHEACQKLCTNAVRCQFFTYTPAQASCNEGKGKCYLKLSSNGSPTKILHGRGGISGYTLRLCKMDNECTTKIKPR

[4] = tested on: carotid artery thrombosis in FXII−/− mice; assay: FeCl3 carotid artery thrombosis model, FXII-deficient mice
Method: (§1) C57Bl/6 WT mice and C57Bl/6 mice deficient in factor fXII (FXII^−/−), were used in these studies. The procedures were approved by the Institutional Animal Care and Use Committee of Vanderbilt University. After anesthesia with pentobarbital (50 mg/kg IP), the right common carotid artery was exposed and fitted with a Doppler flow probe (Model 0.5 VB, Transonic System, Ithaca, N.Y.). […] Flow was monitored for 30 min. Mice were sacrificed by pentobarbital overdose after conclusion of the experiment, while under anesthesia.

[5] = toxicity: 14 metabolic markers in mice; format: in vivo
Text: The blood glucose level was decreased in drug-treated mice (n=3) by 15%.

α-kallikrein = α-kallikrein (Homo sapiens (Human), UniProt P03952); assay: specificity: serine protease α-kallikrein; format: biochemical
Sequence of α-kallikrein (P03952 391-638): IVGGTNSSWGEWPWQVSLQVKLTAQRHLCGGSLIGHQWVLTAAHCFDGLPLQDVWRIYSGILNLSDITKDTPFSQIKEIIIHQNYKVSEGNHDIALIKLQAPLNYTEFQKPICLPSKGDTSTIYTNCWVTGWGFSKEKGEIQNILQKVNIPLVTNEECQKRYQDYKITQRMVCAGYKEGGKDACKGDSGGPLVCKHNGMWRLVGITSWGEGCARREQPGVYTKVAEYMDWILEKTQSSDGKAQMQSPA
Sequence of α-kallikrein (P03952 20-390 partner): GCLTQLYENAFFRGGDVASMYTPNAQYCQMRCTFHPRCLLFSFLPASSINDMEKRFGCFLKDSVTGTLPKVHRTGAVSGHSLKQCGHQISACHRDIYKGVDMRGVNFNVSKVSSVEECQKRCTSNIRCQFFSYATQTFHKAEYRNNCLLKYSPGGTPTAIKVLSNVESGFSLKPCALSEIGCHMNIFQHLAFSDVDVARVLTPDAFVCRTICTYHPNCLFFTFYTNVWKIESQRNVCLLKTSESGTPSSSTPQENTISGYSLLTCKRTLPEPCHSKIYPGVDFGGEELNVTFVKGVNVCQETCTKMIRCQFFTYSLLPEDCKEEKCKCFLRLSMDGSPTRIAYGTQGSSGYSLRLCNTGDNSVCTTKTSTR

factor XIIa (FXIIa) = factor XIIa (FXIIa) (Homo sapiens (Human), UniProt P00748); assay: specificity: serine protease FXIIa; format: biochemical
Sequence of factor XIIa (FXIIa) (P00748 373-615): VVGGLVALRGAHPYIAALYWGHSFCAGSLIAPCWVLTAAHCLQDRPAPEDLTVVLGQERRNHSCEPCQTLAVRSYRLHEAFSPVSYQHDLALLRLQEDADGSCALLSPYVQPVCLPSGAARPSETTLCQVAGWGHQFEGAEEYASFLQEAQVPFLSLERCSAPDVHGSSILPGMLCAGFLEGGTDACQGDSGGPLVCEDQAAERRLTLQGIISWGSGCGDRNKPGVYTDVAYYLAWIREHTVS

food intake of mice = assay: food intake in fasted mice after i.p. injection; format: in vivo
Method: Mice were single housed one week before the experiment. Male mice (n=6 per group; 4 months old) were then food deprived for 24 hours. […] Food intake was measured at 1 hour, 2 hours, 4 hours 8 hours and 24 hours.

HPAEC permeability = assay: in vitro vascular permeability assay, HPAEC monolayer with HK/PK complex; format: cell-based, human
Method: The effect of the inhibitors of PRCP on vascular permeability was assessed using an in vitro vascular permeability assay kit (Chemicon/Millipore, Mass.) according to the manufacturer's protocol. Briefly, collagen coating solution in 0.2×PBS, pH 7.1 was added to the inserts. After incubating for 1 h at room temperature, the inserts were hydrated with cell growth medium for 15 min and seeded with 200 μL of cell suspension (1.0×10^6 HPAEC/mL). The plate was incubated at 37° C. for 24 h until a cell monolayer was formed. The inserts were then treated with cell basal medium (negative control); 1 μg/mL LPS (positive control); 0.1 μM HK/PK complex in the absence or presence of HOE-140 (1 μM) and lisinopril (1 μM, […]) and incubated at 37° C. for 18 h. […] The fluorescence was read at an excitation wavelength of 485 nm and an emission wavelength of 528 nm using BioTek Synergy 2 Multi-Mode Microplate Reader.

[6] = tested on: carotid artery thrombosis in wild type C57BL/6 mice; assay: FeCl3 carotid artery thrombosis model, wild type mice; conditions: 10 mg/kg IV, 3.5% FeCl3, vs PBS
Method: as §1

[7] = biological target: recombinant prolylcarboxypeptidase (rPRCP) (Homo sapiens (Human), UniProt P42785); assay: chromogenic enzyme assay of rPRCP with Ala-Pro-p-nitroaniline (APpNA); format: biochemical
Sequence of recombinant prolylcarboxypeptidase (rPRCP) (P42785 46-496): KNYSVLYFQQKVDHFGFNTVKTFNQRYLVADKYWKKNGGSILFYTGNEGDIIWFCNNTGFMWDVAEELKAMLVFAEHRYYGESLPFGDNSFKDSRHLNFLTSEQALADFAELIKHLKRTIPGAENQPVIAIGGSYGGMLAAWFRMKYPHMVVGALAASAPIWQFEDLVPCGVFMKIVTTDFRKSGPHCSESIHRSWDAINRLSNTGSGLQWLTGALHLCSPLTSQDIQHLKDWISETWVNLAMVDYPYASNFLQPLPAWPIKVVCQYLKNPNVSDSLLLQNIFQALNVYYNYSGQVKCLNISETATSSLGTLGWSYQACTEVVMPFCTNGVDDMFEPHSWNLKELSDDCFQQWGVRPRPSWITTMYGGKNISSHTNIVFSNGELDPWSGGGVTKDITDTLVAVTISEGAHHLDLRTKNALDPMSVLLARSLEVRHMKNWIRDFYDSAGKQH
Method: Applicants utilized two assays to evaluate the putative PRCP inhibitors; 1.) a chromogenic enzyme assay, that involved the continual monitoring [60 min] for the production of p-nitroaniline derived from rPRCP-catalyzed conversion of Ala-Pro-p-nitroaniline (APpNA) in the presence of inhibitor and; 2.) a cell-based assay measuring the PRCP-dependent PK activation on human pulmonary artery endothelial cells (HPAEC). […] The effects of the inhibitors of PRCP were determined using a previously published method^31. Briefly, rPRCP was incubated in the presence or absence of various PRCP inhibitors in HEPES-carbonated buffer containing 1 mM Ala-Pro-paranitroaniline (APpNA, a PRCP chromogenic substrate). The final volume was 100 μL and the time of incubation was 60 min. […] Generation of free p-nitroaniline from APpNA was determined by monitoring changes in absorbance at 405 nm. Assays were done a minimum of 3 times.

[8] = tested on: PRCP-dependent PK activation on human pulmonary artery endothelial cells (HPAEC)
Method: Applicants utilized two assays to evaluate the putative PRCP inhibitors; 1.) a chromogenic enzyme assay, that involved the continual monitoring [60 min] for the production of p-nitroaniline derived from rPRCP-catalyzed conversion of Ala-Pro-p-nitroaniline (APpNA) in the presence of inhibitor and; 2.) a cell-based assay measuring the PRCP-dependent PK activation on human pulmonary artery endothelial cells (HPAEC). […] Human pulmonary artery endothelial cells (HPAEC) were purchased from Invitrogen (Carlsbad, Calif.) and were cultured as previously described.^20 The cells were grown in Dulbecco's Modified Eagle's Medium (DMEM) overnight in 96 well plates (Costar). […] Gelatin blocking buffer (1% Gelatin) was prepared by adding appropriate amount of 5% gelatin stock to HEPES-carbonated buffer as described above. In the first step, gelatin blocking buffer was used to reduce the non specific binding. As part of this step, the cells were incubated with 1% gelatin buffer for 1 hour.

trypsin = assay: specificity: serine protease trypsin; format: biochemical
[9] = failed to inhibit at these concentrations

c1cnc2c(c1)ccc1cccnc12 [1,10-phenanthroline]
IC50 [1]: 1000 µM
Ki [1]: 615 µM
IC50 (CPM): 640 µM
Ki (CPM): 394 µM
Ki, CPB [2]: 738.5 ηM
Ki, CPA [3]: 486 ηM

CCCCCCCCCCCCNC(=O)[C@@H]1CCCN1C(=O)[C@@H]1CCCN1.Cl [RS-33-21, (S)—N-dodecyl-1-((S)-pyrrolidine-2-carbonyl)pyrrolidine-2-carboxamide hydrochloride]
inhibition of CPN (in words) ([1]; metabolism of hippuryl-lysine): did not inhibit
concentration at which FXIa was not inhibited (factor XIa (FXIa); [9]): > 1.0 mM
antithrombotic effect (in words) ([4]; FXII deficient mice): evidence for an antithrombotic effect
mice that did not develop occlusion ([4]; FXII−/− mice, 10 mg/kg IV, 12.5% FeCl3): 4 of 6
decrease in blood glucose level ([5]; drug-treated mice, n=3): 15%
glucose levels compared with control mice (in words) ([5]; mice, Table 16): relatively low but not statistically significant
increase in blood amylase compared to sham animals ([5]; mice, n=3): 20%
change in electrolyte levels, body water, markers of kidneys and liver ([5]; mice, within 8 h): failed to cause any significant change
inhibition of CPM (in words) (CPM; metabolism of hippuryl-lysine): did not inhibit
inhibition of CPB (in words) [2]: not inhibited
concentration at which kallikrein was not inhibited (α-kallikrein; [9]): > 1.0 mM
concentration at which FXIIa was not inhibited (factor XIIa (FXIIa); [9]): > 1.0 mM
time to start of attenuation of food intake (food intake of mice; i.p.): ≤ 1 h
food intake at 1 mg/kg (food intake of mice; i.p. 1 mg/kg): lower food intake, although the reduction was not significant at 2, 4, 8, or 24 h
food intake at 10 mg/kg (food intake of mice; i.p. 10 mg/kg, all time intervals): Significant declines in food intake
food intake, dose and time dependence (food intake of mice; i.p., 1, 10 or 100 mg/kg, hydrochloride): induced appetite loss that was dose- and time-dependent; also recorded: inhibited food intake; also recorded: reduced food-intake in mice in a dose- and time-dependent fashion; also recorded: reduced food intake in mice in a dose-dependent and time-dependent manner
food intake at 100 mg/kg (food intake of mice; single i.p. injection 100 mg/kg, 1-24 h, hydrochloride): Significant declines in food intake; also recorded: reduced food intake
reduction of cell permeability (HPAEC permeability; 100 μM, in the presence of HK/PK (0.1 μM each)): 90%
BK-induced permeability blocked (HPAEC permeability; concentration not given): 100%
inhibition of CPA (in words) [3]: not inhibited
vessel occlusion [6]: did not prevent vessel occlusion
time to arterial occlusion ([6]; hydrochloride): nor prolong the time to arterial occlusion; also recorded: did not observe shortening of carotid artery occlusion times

CCOCCOCCOCCCNC(=O)[C@@H]1CCCN1C(=O)[C@@H]1CCCN1C(=O)OCc1ccccc1 [RS-33-22, (S)-benzyl-2-((S)-2-((3-(2-(2-ethoxyethoxy)ethoxy)propyl)carbamoyl)pyrrolidine-1-carbonyl) pyrrolidine-1-carboxylate]
rPRCP inhibition (in words) [7]: ineffective
blocking of PK activation on HPAEC (in words) [8]: ineffective

O=C[C@@H]1CCCN1C(=O)[C@@H]1CCCN1C(=O)OCc1ccccc1 [Z-Pro-Pro-OH, 1-[1-(benzyloxycarbonyl)-L-prolyl]prolinal, reference compound] (Cbz-Pro-Pro-aldehyde)
rPRCP inhibition (in words) [7]: a little effect
blocking of PK activation on HPAEC (in words) [8]: a little effect

corn trypsin inhibitor
IC50 (factor XIIa (FXIIa)): 0.2 µM
Ki (factor XIIa (FXIIa)): 0.12 µM

B1: soybean trypsin inhibitor: soybean trypsin inhibitor (SBTI), comparison inhibitor of kallikrein, FXIa and trypsin (protein, UniProt P01070 25-205, looked up)
Trypsin inhibitor A: DFVLDNEGNPLENGGTYYILSDITAFGGIRAAPTGNERCPLTVVQSRNELDKGIGTIISSPYRIRFIAEGHPLSLKFDSFAVIMLCVGIPTEWSVVEDLPEGPAVKIGENKDAMDGWFRLERVSDDEFNNYKLVFCPQQAEDDKCGDIGISIDHDDGTRRLVVSKNKPLVVQFQKLDKESL
IC50 (trypsin): 0.2 µM
IC50 (factor XIa (FXIa)): 1 µM
IC50 (α-kallikrein): 10 µM
